{
  "source": "patent US10863739B2",
  "about": "(AgroFresh Inc., priority 2015, dated 2020)",
  "origin": "cited, not measured here",
  "conditions": "gas",
  "data": [
    {"smiles": "CC1=CC1", "note": "[1-MCP, 1-Methylcyclopropene]", "values": [
      {"measurement": "flammable above a concentration", "value": "> 13,300 ppm"}
    ]}
  ]
}
